Results as given in US9771430B2, “Method of treating a metabolic disorder induced by obesity in a subject in need thereof by administering MK2/3 inhibitors” (THE TRUSTEES OF COLUMBIA UNIVERSITY IN THE CITY OF NEW YORK, priority 2011, dated 2017).

What was measured:
cytosolic free calcium = test: Calcium mobilization in primary hepatocytes (Fura-2 imaging); format: cell-based, mouse
Procedure: Mouse primary hepatocytes were plated on glass coverslips and loaded with 5 μM Fura-2 acetoxymethyl ester (Molecular Probes) in the presence of 0.025% (w/v) pluronic F127 (Sigma-Aldrich) in Media 199 (Mediatech) for 30 minutes. […] The ratio of fluorescence intensity at the two excitation wavelengths was calculated after subtracting background fluorescence. [Ca2+]I (cytosolic free calcium concentration) was calculated using a Fura-2 calcium imaging calibration kit (Invitrogen). Images were collected and analyzed using the MetaFluor software package (Universal Imaging Corp.). Graphs represent average responses from groups of 30-40 individual cells from representative single experiments. Bar graphs represent average responses (fold over average baseline) from 150-200 cells per condition. All experiments were repeated at least three times with similar results.

CaMKII = format: cell-based, mouse
Procedure: FIG. 1A. CaMKII enzyme activity was assayed in triplicate wells of primary mouse HCs stimulated with 100 nM glucagon (Gluc) or vehicle control (Veh) for the indicated times (*P<0.05 and **P<0.01 vs. Veh; mean±S.E.M.). FIGS. 1B-1J. Extracts of HCs or liver were probed for phospho-CaMKII, total CaMKII, and β-actin by immunoblot assay. FIG. 1B. HCs were incubated with […] glucagon for the indicated times; FIG. 1C. Glucagon was added to HCs that were pre-treated for 1 h with vehicle control (Veh) or 5 μM BAPTA-AM; FIG. 1D. Glucagon was added to HCs that were pre-treated with 0.5 μM xestospongin (XesC) or to HCs from Ip3r1fl/fl mice transduced with adeno-LacZ control or adeno-Cre (bar graph=Ip3r1 mRNA levels); FIG. 1E. Glucagon was added to HCs that were pre-treated for 1 h with vehicle control (Veh) or 10 μM H89. FIG. 1F. […] FIGS. 1G-1J. In vivo experiments. In FIG. 1G, mice were treated for 30 min with 200 μg kg−1 body weight of glucagon i.p., and in FIG. 1H, mice were pre-treated with 10 pmol g−1 xestospongin C or vehicle control i.p. 4 days prior to glucagon treatment. In FIGS. 1I-1J, mice were fed ad libitum or fasted for 12 h, or fasted for 12 h and then re-fed for 4 h.
Total RNA was extracted from hepatocytes using the RNeasy kit (Qiagen). cDNA was synthesized from 2 μg total RNA using oligo (dT) and Superscript II (Invitrogen). Real-time qPCR analysis and western blotting were performed as previously described (Timmins et al., 2009). Nuclear extraction from liver was performed using the Nuclear Extraction Kit from Panomics according to the manufacturer's instructions.
Immunoblot and RT-qPCR assays were performed as previously described (Timmins et al., 2009). Total RNA was extracted from HCs using the RNeasy kit (Qiagen). cDNA was synthesized from 2 μg total RNA using oligo (dT) and Superscript II (Invitrogen). Nuclear extraction from liver was performed using the Nuclear Extraction Kit from Panomics according to the manufacturer's instructions.

Row | Compound | cellular free calcium (cytosolic free calcium; exposure of primary hepatocytes to glucagon) | phospho-CaMKII (CaMKII; HCs treated with agonist) | cytosolic calcium mobilization in response to glucagon (and forskolin) (cytosolic free calcium; co-/pre-treatment with inhibitor) | glucagon-induced CaMKII phosphorylation (CaMKII; HCs pre-treated with inhibitor, then glucagon)
1 | glucagon: hormone used to stimulate hepatocytes and mice | rapid increase | induced |  | 
2 | C1CCC[C@H]2CCCN3CC[C@@H](CCCCCC[C@@H]4CCCN5CC[C@@H](CC1)O[C@@H]45)O[C@@H]23 [Xestospongin C] |  |  | disrupted | significant decrease
